Assays:
Test in all cases: Kinome-wide profiling
Assay type in all cases: biochemical
Details in all cases: read-out: % Residual Activity (mean)
[1] = biological target: PKCIOTA (Homo sapiens (Human), UniProt P41743)
[2] = biological target: GCK/MAP4K2 (Homo sapiens (Human), UniProt Q12851)
[3] = biological target: FGFR1 (Homo sapiens (Human), UniProt P11362)
[4] = biological target: PIM2 (Homo sapiens (Human), UniProt Q9P1W9)
[5] = biological target: KHS/MAP4K5 (Homo sapiens (Human), UniProt Q9Y4K4)
[6] = biological target: TRKA (Homo sapiens (Human), UniProt P04629)
[7] = biological target: DYRK3 (Homo sapiens (Human), UniProt O43781)
[8] = biological target: CK1g3 (Homo sapiens (Human), UniProt Q9Y6M4)
CK1g3, sequence (Q9Y6M4 whole entry): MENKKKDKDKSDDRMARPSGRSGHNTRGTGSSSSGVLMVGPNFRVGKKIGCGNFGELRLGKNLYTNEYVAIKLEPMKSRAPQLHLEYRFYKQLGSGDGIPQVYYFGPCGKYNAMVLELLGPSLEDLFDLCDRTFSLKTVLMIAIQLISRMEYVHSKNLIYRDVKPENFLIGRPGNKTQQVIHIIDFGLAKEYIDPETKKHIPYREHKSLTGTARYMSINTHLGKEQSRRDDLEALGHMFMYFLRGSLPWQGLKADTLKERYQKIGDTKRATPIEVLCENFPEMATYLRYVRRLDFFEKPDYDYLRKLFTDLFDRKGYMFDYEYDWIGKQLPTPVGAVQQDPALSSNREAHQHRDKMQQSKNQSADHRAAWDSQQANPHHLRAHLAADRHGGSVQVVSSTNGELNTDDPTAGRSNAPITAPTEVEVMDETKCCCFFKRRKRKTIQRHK

[9] = biological target: CDK9/cyclin K (Homo sapiens (Human), UniProt P50750)
[10] = biological target: STK39/STLK3 (Homo sapiens (Human), UniProt Q9UEW8)
[11] = biological target: ERN2/IRE2 (Homo sapiens (Human), UniProt Q76MJ5)
[12] = biological target: PLK1 (Homo sapiens (Human), UniProt P53350)
[13] = biological target: CDK3/cyclin E (Homo sapiens (Human), UniProt Q00526)
[14] = biological target: NEK1 (Homo sapiens (Human), UniProt Q96PY6)
[15] = biological target: RSK2 (Homo sapiens (Human), UniProt P51812)
[16] = biological target: ASK1/MAP3K5 (Homo sapiens (Human), UniProt Q99683)
ASK1/MAP3K5, sequence (Q99683 whole entry): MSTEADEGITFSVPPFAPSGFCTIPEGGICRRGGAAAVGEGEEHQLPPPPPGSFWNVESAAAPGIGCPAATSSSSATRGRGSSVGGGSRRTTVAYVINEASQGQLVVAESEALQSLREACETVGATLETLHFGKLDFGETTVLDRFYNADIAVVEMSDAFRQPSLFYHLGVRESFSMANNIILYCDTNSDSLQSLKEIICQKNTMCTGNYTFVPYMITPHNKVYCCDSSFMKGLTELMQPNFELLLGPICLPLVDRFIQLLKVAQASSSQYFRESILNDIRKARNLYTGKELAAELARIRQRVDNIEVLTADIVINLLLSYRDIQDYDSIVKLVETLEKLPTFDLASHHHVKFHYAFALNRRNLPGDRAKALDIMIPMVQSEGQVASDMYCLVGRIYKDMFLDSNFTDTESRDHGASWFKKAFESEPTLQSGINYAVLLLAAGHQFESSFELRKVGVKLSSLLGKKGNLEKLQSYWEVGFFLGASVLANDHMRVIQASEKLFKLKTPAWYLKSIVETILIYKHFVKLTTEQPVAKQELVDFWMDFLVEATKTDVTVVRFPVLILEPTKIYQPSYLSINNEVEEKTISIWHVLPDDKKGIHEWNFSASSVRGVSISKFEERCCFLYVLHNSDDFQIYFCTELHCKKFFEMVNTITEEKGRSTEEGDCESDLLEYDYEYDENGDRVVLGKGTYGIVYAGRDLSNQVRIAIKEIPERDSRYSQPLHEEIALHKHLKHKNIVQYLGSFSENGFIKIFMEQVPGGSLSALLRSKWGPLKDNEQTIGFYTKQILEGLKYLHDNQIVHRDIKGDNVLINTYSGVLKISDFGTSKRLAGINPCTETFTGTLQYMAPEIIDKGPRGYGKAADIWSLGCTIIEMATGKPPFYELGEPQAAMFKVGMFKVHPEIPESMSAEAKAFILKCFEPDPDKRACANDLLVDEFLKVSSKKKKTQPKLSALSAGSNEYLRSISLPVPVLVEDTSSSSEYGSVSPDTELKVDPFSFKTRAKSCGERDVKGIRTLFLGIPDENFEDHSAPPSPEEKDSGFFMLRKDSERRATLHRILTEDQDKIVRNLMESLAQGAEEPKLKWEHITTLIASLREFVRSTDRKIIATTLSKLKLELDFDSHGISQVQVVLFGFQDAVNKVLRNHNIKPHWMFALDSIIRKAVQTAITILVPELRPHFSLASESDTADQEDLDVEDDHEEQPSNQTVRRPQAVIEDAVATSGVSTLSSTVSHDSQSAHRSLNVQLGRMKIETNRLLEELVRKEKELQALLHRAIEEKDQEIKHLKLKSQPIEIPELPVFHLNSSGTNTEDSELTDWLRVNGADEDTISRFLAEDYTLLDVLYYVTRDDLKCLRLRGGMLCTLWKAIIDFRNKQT

[17] = biological target: CDK9/cyclin T2 (Homo sapiens (Human), UniProt P50750)
[18] = biological target: EPHB1 (Homo sapiens (Human), UniProt P54762)
[19] = biological target: KSR2 (Homo sapiens (Human), UniProt Q6VAB6)
[20] = biological target: CDK1/cyclin A (Homo sapiens (Human), UniProt P06493)
[21] = biological target: PHKg1 (Homo sapiens (Human), UniProt Q16816)
PHKg1, sequence (Q16816 whole entry): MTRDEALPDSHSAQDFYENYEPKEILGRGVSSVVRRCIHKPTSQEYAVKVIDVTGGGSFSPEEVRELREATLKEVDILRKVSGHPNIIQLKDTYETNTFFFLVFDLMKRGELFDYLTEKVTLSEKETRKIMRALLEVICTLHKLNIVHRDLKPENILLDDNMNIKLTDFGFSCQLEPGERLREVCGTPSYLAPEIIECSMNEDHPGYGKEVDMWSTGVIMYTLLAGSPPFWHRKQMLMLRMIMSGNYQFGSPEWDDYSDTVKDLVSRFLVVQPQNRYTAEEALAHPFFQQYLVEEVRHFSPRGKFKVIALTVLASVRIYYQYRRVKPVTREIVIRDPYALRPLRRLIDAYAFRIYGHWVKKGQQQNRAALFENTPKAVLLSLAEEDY

[22] = biological target: FLT3 (Homo sapiens (Human), UniProt P36888)
[23] = biological target: ALK (Homo sapiens (Human), UniProt Q9UM73)
[24] = biological target: AURORA C (Homo sapiens (Human), UniProt Q9UQB9)
AURORA C, sequence (Q9UQB9 whole entry): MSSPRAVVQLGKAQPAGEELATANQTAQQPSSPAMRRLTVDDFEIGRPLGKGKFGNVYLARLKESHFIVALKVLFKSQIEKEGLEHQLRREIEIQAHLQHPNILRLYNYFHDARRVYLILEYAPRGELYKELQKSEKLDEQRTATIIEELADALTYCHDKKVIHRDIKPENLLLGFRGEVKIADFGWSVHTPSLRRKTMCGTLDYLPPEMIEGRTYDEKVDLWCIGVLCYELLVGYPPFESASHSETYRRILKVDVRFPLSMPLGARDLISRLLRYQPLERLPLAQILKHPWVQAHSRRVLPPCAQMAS

[25] = biological target: ROCK1 (Homo sapiens (Human), UniProt Q13464)
[26] = biological target: DRAK1/STK17A (Homo sapiens (Human), UniProt Q9UEE5)
DRAK1/STK17A, sequence (Q9UEE5 whole entry): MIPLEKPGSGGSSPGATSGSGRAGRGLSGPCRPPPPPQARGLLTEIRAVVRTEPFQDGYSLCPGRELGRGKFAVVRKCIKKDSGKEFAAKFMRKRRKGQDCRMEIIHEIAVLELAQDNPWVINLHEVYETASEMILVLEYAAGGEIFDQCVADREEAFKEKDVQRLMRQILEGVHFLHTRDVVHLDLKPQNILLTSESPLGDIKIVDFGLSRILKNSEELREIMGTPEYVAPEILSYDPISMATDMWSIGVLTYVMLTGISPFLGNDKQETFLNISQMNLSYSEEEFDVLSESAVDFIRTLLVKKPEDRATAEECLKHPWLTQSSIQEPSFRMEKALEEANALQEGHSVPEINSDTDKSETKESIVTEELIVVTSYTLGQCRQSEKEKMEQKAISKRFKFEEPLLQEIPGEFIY

[27] = biological target: MEK2 (Homo sapiens (Human), UniProt P36507)
[28] = biological target: MELK (Homo sapiens (Human), UniProt Q14680)
[29] = biological target: PKN2/PRK2 (Homo sapiens (Human), UniProt Q16513)
[30] = biological target: TAOK2/TAO1 (Homo sapiens (Human), UniProt Q9UL54)
TAOK2/TAO1, sequence (Q9UL54 whole entry): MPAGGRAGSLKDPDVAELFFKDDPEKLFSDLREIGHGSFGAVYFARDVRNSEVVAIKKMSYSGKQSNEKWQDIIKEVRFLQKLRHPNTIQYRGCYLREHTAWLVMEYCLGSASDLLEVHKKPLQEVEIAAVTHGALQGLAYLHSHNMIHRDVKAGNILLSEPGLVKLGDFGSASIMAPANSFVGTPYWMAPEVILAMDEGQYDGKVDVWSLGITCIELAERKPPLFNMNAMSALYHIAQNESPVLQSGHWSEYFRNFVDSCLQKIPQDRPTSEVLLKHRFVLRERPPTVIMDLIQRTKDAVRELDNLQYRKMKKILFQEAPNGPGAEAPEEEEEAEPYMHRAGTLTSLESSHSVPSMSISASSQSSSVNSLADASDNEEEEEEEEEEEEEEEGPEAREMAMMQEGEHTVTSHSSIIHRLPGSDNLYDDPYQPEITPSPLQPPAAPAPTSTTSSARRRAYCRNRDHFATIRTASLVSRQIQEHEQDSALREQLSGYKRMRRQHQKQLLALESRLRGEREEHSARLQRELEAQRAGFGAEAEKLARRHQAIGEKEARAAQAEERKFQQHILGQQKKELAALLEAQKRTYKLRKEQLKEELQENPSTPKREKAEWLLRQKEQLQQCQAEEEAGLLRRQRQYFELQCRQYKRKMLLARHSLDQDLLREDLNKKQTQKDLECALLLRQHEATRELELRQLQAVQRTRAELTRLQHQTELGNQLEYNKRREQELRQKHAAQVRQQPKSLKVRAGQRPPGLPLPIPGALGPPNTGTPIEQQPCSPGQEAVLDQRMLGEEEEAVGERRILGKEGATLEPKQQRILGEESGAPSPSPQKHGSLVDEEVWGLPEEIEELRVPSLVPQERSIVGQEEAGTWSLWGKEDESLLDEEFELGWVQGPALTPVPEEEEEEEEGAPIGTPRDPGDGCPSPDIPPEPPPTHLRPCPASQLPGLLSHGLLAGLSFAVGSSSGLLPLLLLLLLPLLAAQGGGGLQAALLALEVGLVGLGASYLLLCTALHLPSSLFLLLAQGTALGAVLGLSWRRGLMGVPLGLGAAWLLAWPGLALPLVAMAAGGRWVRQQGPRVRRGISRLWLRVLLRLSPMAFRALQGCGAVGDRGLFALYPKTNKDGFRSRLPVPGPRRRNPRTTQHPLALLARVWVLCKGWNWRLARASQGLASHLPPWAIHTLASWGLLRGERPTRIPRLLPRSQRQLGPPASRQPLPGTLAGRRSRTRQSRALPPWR

[31] = biological target: SGK3/SGKL (Homo sapiens (Human), UniProt Q96BR1)
[32] = biological target: FGFR4 (Homo sapiens (Human), UniProt P22455)
[33] = biological target: Aurora B (Homo sapiens (Human), UniProt Q96GD4)
[34] = biological target: PDGFRa (Homo sapiens (Human), UniProt P16234)
[35] = biological target: CTK/MATK (Homo sapiens (Human), UniProt P42679)
CTK/MATK, sequence (P42679 whole entry): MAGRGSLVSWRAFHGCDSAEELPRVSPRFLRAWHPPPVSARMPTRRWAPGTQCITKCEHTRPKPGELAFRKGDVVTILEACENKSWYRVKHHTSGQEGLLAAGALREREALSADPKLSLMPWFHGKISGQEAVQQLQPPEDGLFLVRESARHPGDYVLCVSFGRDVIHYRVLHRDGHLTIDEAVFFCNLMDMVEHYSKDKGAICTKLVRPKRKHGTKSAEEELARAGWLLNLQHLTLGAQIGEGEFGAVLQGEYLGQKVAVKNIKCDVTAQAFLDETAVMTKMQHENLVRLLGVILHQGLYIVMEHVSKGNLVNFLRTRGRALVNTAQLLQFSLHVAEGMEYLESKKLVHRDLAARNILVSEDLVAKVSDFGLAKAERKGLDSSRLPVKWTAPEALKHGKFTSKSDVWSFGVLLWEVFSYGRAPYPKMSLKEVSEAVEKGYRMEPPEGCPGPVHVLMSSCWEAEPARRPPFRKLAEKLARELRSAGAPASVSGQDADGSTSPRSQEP

[36] = biological target: GSK3a (Homo sapiens (Human), UniProt P49840)
[37] = biological target: CSK (Homo sapiens (Human), UniProt P41240)
[38] = biological target: MLK1/MAP3K9 (Homo sapiens (Human), UniProt P80192)
[39] = biological target: FAK/PTK2 (Homo sapiens (Human), UniProt Q05397)

PIM2, sequence (Q9P1W9 whole entry): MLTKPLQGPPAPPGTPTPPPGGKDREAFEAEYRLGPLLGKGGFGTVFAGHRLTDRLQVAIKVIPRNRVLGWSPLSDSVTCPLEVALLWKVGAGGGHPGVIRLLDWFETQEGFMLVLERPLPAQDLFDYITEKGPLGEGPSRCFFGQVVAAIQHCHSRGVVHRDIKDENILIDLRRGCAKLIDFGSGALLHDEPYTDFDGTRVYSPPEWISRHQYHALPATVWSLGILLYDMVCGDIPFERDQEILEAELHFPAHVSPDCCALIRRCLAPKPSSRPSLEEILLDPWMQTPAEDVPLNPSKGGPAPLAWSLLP

In the case of `CCn1cnc2c(NCc3ccc(-c4ccccn4)nc3)nc(-c3ccc(N)nc3)nc21` [Example 53, N-([2,2′-bipyridin]-5-ylmethyl)-2-(6-aminopyridin-3-yl)-9-ethyl-9H-purin-6-amine], the remaining activity at 10 µM [1] is reported as 86.1%, the remaining activity at 10 µM [2] is reported as 58.4% and the remaining activity at 10 µM [3] is reported as 28.8%. For the same compound, the remaining activity at 10 µM [4] was 93.8%, the remaining activity at 10 µM [5] was 88.3% and the remaining activity at 10 µM [6] was 28.7%. For the same compound, the remaining activity at 10 µM [7] was 58.6%, the remaining activity at 10 µM [8] was 24.4% and the remaining activity at 10 µM [9] was 1.07%. For the same compound, the remaining activity at 10 µM [10] was 29.6%, the remaining activity at 10 µM [11] was 65.4% and the remaining activity at 10 µM [12] was 68.3%. For the same compound, the remaining activity at 10 µM [13] was 0.99%, the remaining activity at 10 µM [14] was 92.3% and the remaining activity at 10 µM [15] was 69.4%. It also gave a remaining activity at 10 µM [16] of 18.4%, a remaining activity at 10 µM [17] of 1.95% and a remaining activity at 10 µM [18] of 13.6%. It also gave a remaining activity at 10 µM [19] of 88.4%, a remaining activity at 10 µM [20] of 4.65% and a remaining activity at 10 µM [21] of 16.5%. It also gave a remaining activity at 10 µM [22] of 40.2%, a remaining activity at 10 µM [23] of 59.7% and a remaining activity at 10 µM [24] of 25.5%. For the same compound, the remaining activity at 10 µM [25] was 97.2%, the remaining activity at 10 µM [26] was 79.3% and the remaining activity at 10 µM [27] was 176%. The remaining activity at 10 µM [28] was 21.1%, the remaining activity at 10 µM [29] was 85.8% and the remaining activity at 10 µM [30] was 23.8%. It also gave a remaining activity at 10 µM [31] of 92.6%, a remaining activity at 10 µM [32] of 87.4% and a remaining activity at 10 µM [33] of 73%. The remaining activity at 10 µM [34] was 52.8%, the remaining activity at 10 µM [35] was 87.6% and the remaining activity at 10 µM [36] was 10.6%. For the same compound, the remaining activity at 10 µM [37] was 54.8%, the remaining activity at 10 µM [38] was 27.9% and the remaining activity at 10 µM [39] was 52.5%.
